Laboratory results taken from patent US4640926A, “3,5-Substituted-2-pyridylalkylaminothiadiazoles having histamine H1 -antagonist activity” (Smith Kline & French Laboratories Limited, priority 1982, dated 1987).

Key:
histamine H1 -receptor = target: T1, histamine H1 -receptor (Cavia porcellus, UniProt P31389); assay: guinea pig ileum test (histamine H1-antagonist activity in vitro); format: cell-based; settings: isolated guinea pig ileum, histamine-induced contraction, 8 min contact, 30° C., Schild plot; read-out: pA2 value (converted)
T1 construct: an isolated portion of the guinea pig ileum is secured under tension; from tissue; host or cells: isolated guinea pig ileum
Description: In this test an isolated portion of the guinea pig ileum is secured under tension (500 mg) between an anchorage and a transducer in a 10 ml tissue bath and immersed in magnesium free Tyrode solution with constant aeration at a temperature of 30° C. The output from the transducer is amplified. The amplified output is in turn fed to a flat bed recorder. Measured amounts of histamine are added to the tissue bath so that the histamine concentration increases step-wise until the force of the contraction reaches a maximum. The tissue bath is washed out and filled with fresh magnesium free Tyrode solution containing compound under test. The solution is left in contact with the tissue for 8 min. and measured amounts of histamine are added again until a maximum contraction is recorded. The assay is repeated with increasing concentrations of test compound and the dose of histamine giving 50% of maximum contraction is noted. A dose ratio (DR) was calculated by comparing the concentrations of histamine required to produce 50% maximum response in the absence and in the presence of the antagonist. A plot of Log DR-1 against Log D (the concentration of compound under test) is made and the point of intersection with the Log (DR-1) ordinate is taken as the measure of the activity (pA2 value).

histamine H2 -receptor = target: T2, histamine H2 -receptor (Cavia porcellus, UniProt P47747); assay: guinea pig atrium test (histamine H2-antagonist activity in vitro); format: cell-based; settings: isolated guinea pig right atrium, histamine-stimulated rate of beating, 60 min contact, 37° C., Schild plot; read-out: pA2 value (converted)
T2 construct: isolated portion of the guinea pig right atrium is secured under tension; from tissue; host or cells: isolated guinea pig right atrium
Description: The histamine H2 -antagonist activity of the compounds of formula (1) can be determined in vitro in the guinea pig atrium test. In this test a spontaneously beating isolated portion of the guinea pig right atrium is secured under tension (300 mg) between an anchorage and a transducer in a 15 ml tissue bath and immersed in McEwens solution with constant aeration at a temperature of 37° C. The output from the transducer is amplified. Output is in turn fed to a flat bed recorder. Measured amounts of histamine are added to the tissue bath so that the histamine concentration increases step-wise until the rate of beating reaches a maximum. The tissue bath is washed out and filled with fresh McEwens solution containing compound under test. The solution is left in contact with the tissue for 60 min. and measured amounts of histamine are added again until a maximum rate is recorded. The assay is repeated with increasing concentrations of test compound and the dose of histamine giving 50% of maximum rate is noted. A dose ratio (DR) was calculated by comparing the concentrations of histamine required to produce 50% maximum response in the absence and in the presence of the antagonist. A plot of Log DR-1 against Log D (the concentration of compound under test) is made and the point of intersection with the Log (DR-1) ordinate is taken as the measure of the activity (pA2 value).

T2 sequence (P47747 whole entry): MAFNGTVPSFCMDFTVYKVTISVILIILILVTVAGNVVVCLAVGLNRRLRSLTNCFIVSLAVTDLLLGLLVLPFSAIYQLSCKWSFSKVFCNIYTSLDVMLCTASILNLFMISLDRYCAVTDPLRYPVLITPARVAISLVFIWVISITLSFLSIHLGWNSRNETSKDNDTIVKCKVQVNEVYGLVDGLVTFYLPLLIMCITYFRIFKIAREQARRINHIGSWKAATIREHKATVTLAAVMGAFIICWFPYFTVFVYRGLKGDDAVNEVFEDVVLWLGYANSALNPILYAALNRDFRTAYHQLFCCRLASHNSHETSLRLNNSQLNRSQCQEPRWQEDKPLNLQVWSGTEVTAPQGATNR
T1 sequence (P31389 whole entry): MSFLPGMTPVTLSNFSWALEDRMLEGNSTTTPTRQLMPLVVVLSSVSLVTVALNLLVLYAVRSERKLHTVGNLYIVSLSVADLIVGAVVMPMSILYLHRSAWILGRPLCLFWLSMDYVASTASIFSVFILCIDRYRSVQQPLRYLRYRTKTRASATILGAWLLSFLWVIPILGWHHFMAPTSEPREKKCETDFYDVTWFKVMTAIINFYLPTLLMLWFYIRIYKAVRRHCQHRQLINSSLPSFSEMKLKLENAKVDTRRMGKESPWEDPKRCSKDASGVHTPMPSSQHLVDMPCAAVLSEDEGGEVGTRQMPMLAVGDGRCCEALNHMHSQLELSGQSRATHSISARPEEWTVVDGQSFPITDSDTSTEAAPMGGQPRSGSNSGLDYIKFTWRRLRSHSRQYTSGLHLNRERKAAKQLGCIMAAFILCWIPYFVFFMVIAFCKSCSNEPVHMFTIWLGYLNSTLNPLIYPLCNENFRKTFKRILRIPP

Row | SMILES | Kb (histamine H1 -receptor) [µM] | Kb (histamine H2 -receptor) [µM]
1 | CNC(=NCCCCc1ncc(Br)cc1C)NC#N [Example 1, N-cyano-N'-methyl-N"-[4-(5-bromo-3-methylpyrid-2-yl)-butyl]-guanidine] | < 0.01 | > 10
2 | Cc1cc(Br)cnc1CCCCN=C(NC#N)NCc1ccccc1 [Example 2, N-cyano-N'-benzyl-N"-[4-(5-bromo-3-methylpyrid-2-yl)-butyl]-guanidine] | < 0.01 | > 10
